What was measured:
MDR1 = system: MDR1; set-up: method as in PMID 34648615; conditions: 300 nM ref 15; cited from earlier work
HCT-8 cells = test: MTS cytotoxicity assay with MDR1 inhibitor elacridar, several HCT-8 derived cell lines; conditions: 300 nM, NC, MDR1, NC(PTX), NC(NTZ)
Method: If the increase of tolerance to a specified inhibitor in host cells was truly mediated by MDR1, specific inhibition of MDR1 would restore the sensitivity of the host cells to the inhibitor (as indicated by TC50). Additionally, inhibition of MDR1 would not affect the anti-cryptosporidial efficacy (EC50) if the drug that acted only on the parasite target, or partially affect the efficacy (EC50) if the drug that also acted on host cell target. This notion was tested using elacridar, a third generation of MDR1 inhibitor [18, 23–25]. […] We then examined the effect of elacridar on the cytotoxicity and anti-cryptosporidial efficacies of the six inhibitors in the range of TC50 or EC50 concentrations.
Host cell drug tolerance to specified inhibitors was evaluated by 3-(4,5-dimethylthiazol-2-yl)-5-(3-carboxymethoxyphenyl)-2-(4-sulfophenyl)-2H-tetrazolium (MTS) assay. […] Optical density at 490 nm (OD490) was measured using a Synergy LX multi-mode reader (BioTek, Winooski, VT). Drug tolerance was indicated by half-maximal cytotoxic concentrations (TC50 values) calculated by nonlinear regression using 4PL model. Selectivity index (SI) for each compound was determined by the ratio between TC50 and EC50 values (SI = TC50/EC50).

Cryptosporidium parvum = test: Anti-cryptosporidial efficacy assay (44-h infection/qRT-PCR); conditions: 300 nM; cultured with NC, MDR1(PTX) and MDR1(NTZ) cells

SMILES: COc1cc2c(cc1OC)CN(CCc1ccc(NC(=O)c3cccc4c(=O)c5cccc(OC)c5[nH]c34)cc1)CC2 [elacridar]
- Inhibition on the activity of MDR1 (MDR1): strong inhibition
- Effect on growth of host cells (HCT-8 cells): no or little effect
- Effect on growth of C. parvum (Cryptosporidium parvum): no or little effect

Source: publication PMC10079235 (PLOS Neglected Tropical Diseases, 2023)
